Results on 7 molecules are retold here after publication PMC11094793, “Discovery of LLC0424 as a Potent and Selective in Vivo NSD2 PROTAC Degrader” (Journal of Medicinal Chemistry, 2024).

In the test the target is T1, NSD2 (Homo sapiens, UniProt O96028).
T1 sequence (O96028 1-1365): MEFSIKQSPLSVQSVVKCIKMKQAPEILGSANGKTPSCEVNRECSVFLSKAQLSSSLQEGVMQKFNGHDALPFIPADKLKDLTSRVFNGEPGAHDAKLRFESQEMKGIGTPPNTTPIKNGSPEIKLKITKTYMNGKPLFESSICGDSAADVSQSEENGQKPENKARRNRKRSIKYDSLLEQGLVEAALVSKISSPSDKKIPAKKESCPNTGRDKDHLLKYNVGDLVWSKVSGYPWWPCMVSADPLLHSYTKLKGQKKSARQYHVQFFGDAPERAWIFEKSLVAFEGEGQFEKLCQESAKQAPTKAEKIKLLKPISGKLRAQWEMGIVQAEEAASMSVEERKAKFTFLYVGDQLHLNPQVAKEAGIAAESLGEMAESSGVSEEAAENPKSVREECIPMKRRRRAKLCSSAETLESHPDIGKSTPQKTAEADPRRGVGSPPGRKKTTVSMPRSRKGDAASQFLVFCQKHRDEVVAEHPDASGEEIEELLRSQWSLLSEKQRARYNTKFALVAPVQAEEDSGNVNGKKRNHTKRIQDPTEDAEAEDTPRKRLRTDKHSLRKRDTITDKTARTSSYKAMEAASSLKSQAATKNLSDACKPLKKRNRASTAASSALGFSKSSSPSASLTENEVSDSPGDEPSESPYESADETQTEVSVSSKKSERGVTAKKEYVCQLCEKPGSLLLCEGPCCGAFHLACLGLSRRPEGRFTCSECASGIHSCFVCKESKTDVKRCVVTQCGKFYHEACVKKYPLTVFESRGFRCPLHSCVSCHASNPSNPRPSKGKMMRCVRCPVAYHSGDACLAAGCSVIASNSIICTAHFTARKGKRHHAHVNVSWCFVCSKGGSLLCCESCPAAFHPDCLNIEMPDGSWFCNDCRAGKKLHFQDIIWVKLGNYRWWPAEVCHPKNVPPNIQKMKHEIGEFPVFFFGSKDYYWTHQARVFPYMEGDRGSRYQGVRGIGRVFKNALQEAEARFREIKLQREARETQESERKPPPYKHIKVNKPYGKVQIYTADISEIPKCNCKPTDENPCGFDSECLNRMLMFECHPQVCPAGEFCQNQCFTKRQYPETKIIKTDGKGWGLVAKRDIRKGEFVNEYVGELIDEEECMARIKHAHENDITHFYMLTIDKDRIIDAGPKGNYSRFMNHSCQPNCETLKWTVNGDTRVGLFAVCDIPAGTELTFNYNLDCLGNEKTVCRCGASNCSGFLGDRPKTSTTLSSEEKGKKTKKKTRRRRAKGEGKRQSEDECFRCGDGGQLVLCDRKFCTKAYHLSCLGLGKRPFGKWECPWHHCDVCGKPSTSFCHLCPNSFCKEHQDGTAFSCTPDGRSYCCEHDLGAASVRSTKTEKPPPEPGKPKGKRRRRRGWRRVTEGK
As to the kind of experiment: Compound screening: NSD2 degradation by immunoblotting in VCaP cells. The settings on record: VCaP, 24 h. (A western blot detects proteins with antibodies after separation by electrophoresis.)

The mark [1] stands for this setting: read-out: 2.0 μM Degradation % (VCaP).

Each structure is given as a SMILES string. Like-named read-outs stand apart in the source and are kept apart here.

Protocol: After treatment, the cultured cells were collected and rinsed with phosphate-buffered saline (PBS) in room temperature. The cells were treated with RIPA buffers (ThermoFisher Scientific) supplemented with Halt Protease and Phosphatase Inhibitor Cocktail (ThermoFisher Scientific). After sonication and centrifugation, the total amount of protein in the cell lysates was measured by Pierce Bovine Serum Albumin Standard Pre-Diluted Set (ThermoFisher Scientific). […] After incubated with HRP-conjugated secondary antibodies, the membranes were developed with ECL Prime Western Blotting Detection Reagent (cytiva) and imaged on Odyssey Fc Imager (LiCOR Biosciences).
Western blot was then performed as previously described to detect NSD2 degradation.

As for `O=C1CCC(N2C(=O)c3cccc(NCCCCCCNC(=O)c4ccc(NC(=O)c5ccc(CN(C(=O)c6ccc7c(c6)OCC(=O)N7)C6CC6)cc5)cc4)c3C2=O)C(=O)N1` (centres unmarked) [10c, N-Cyclopropyl-N-(4-((4-((6-((2-(2,6-dioxopiperidin-3-yl)-1,3-dioxoisoindolin-4-yl)amino)hexyl)carbamoyl)phenyl)carbamoyl)benzyl)-3-oxo-3,4-dihydro-2H-benzo[b][1,4]oxazine-7-carboxamide], the Dmax at 2 µM reads like this: under setting [1], 25%; (read-out: % Degradation) 25%.

With `O=C1CCC(N2C(=O)c3cccc(NCCCCCCCCNC(=O)c4ccc(NC(=O)c5ccc(CN(C(=O)c6ccc7c(c6)OCC(=O)N7)C6CC6)cc5)cc4)c3C2=O)C(=O)N1` (centres unmarked) [10d, N-Cyclopropyl-N-(4-((4-((8-((2-(2,6-dioxopiperidin-3-yl)-1,3-dioxoisoindolin-4-yl)amino)octyl)carbamoyl)phenyl)carbamoyl)benzyl)-3-oxo-3,4-dihydro-2H-benzo[b][1,4]oxazine-7-carboxamide], the Dmax at 2 µM came out at 13% under setting [1] and 13% (read-out: % Degradation).

In the case of `O=C1CCC(N2C(=O)c3ccc(NCCNC(=O)c4ccc(NC(=O)c5ccc(CN(C(=O)c6ccc7c(c6)OCC(=O)N7)C6CC6)cc5)cc4)cc3C2=O)C(=O)N1` (centres unmarked) [10e, N-cyclopropyl-N-(4-((4-((2-((2-(2,6-dioxopiperidin-3-yl)-1,3-dioxoisoindolin-5-yl)amino)ethyl)carbamoyl)phenyl)carbamoyl)benzyl)-3-oxo-3,4-dihydro-2H-benzo[b][1,4]oxazine-7-carboxamide], the Dmax at 2 µM was 70% under setting [1] and 70% (read-out: % Degradation).

With `O=C1CCC(N2C(=O)c3ccc(NCCCCNC(=O)c4ccc(NC(=O)c5ccc(CN(C(=O)c6ccc7c(c6)OCC(=O)N7)C6CC6)cc5)cc4)cc3C2=O)C(=O)N1` (centres unmarked) [10g, N-Cyclopropyl-N-(4-((4-((4-((2-(2,6-dioxopiperidin-3-yl)-1,3-dioxoisoindolin-5-yl)amino)butyl)carbamoyl)phenyl)carbamoyl)benzyl)-3-oxo-3,4-dihydro-2H-benzo[b][1,4]oxazine-7-carboxamide], the Dmax at 2 µM runs as follows: under setting [1], 92%; (read-out: % Degradation) 92%.

On to `O=C1CCC(N2C(=O)c3ccc(NCCCCCNC(=O)c4ccc(NC(=O)c5ccc(CN(C(=O)c6ccc7c(c6)OCC(=O)N7)C6CC6)cc5)cc4)cc3C2=O)C(=O)N1` (centres unmarked) [10h, N-Cyclopropyl-N-(4-((4-((5-((2-(2,6-dioxopiperidin-3-yl)-1,3-dioxoisoindolin-5-yl)amino)pentyl)carbamoyl)phenyl)carbamoyl)benzyl)-3-oxo-3,4-dihydro-2H-benzo[b][1,4]oxazine-7-carboxamide], for which the Dmax at 2 µM was 80% under setting [1] and 80% (read-out: % Degradation).

As for `O=C1CCC(N2C(=O)c3ccc(NCCCCCCNC(=O)c4ccc(NC(=O)c5ccc(CN(C(=O)c6ccc7c(c6)OCC(=O)N7)C6CC6)cc5)cc4)cc3C2=O)C(=O)N1` (centres unmarked) [10i, N-Cyclopropyl-N-(4-((4-((6-((2-(2,6-dioxopiperidin-3-yl)-1,3-dioxoisoindolin-5-yl)amino)hexyl)carbamoyl)phenyl)carbamoyl)benzyl)-3-oxo-3,4-dihydro-2H-benzo[b][1,4]oxazine-7-carboxamide], the Dmax at 2 µM under setting [1] was 83% and the Dmax at 2 µM (read-out: % Degradation) was 83%.

For `O=C1CCC(N2C(=O)c3ccc(NCCCCCCCCNC(=O)c4ccc(NC(=O)c5ccc(CN(C(=O)c6ccc7c(c6)OCC(=O)N7)C6CC6)cc5)cc4)cc3C2=O)C(=O)N1` (centres unmarked) [10j, N-Cyclopropyl-N-(4-((4-((8-((2-(2,6-dioxopiperidin-3-yl)-1,3-dioxoisoindolin-5-yl)amino)octyl)carbamoyl)phenyl)carbamoyl)benzyl)-3-oxo-3,4-dihydro-2H-benzo[b][1,4]oxazine-7-carboxamide], the Dmax at 2 µM was 90% under setting [1] and 90% (read-out: % Degradation).
